According to article PMC3744530, “CTA095, a Novel Etk and Src Dual Inhibitor, Induces Apoptosis in Prostate Cancer Cells and Overcomes Resistance to Src Inhibitors” (PLoS ONE, 2013):
pIC50: −log10 of the molar value.

Legend:
caspase 9 in PC3 cells = experiment: Caspase 9 activation (Western blot); assay type: cell-based, human; settings: PC3, 0–10 μM, 24 h
Method: For caspase 3/7 activities, PC3 cells were seeded at 5,000 cells/well in 96-well plate overnight. Then the cells were treated with 0–10 μM CTA095 for 24 h. Caspase-3/7 activities were measured using the Apo-ONE Homogeneous Caspase-3/7 Assay kit (Promega, Madison, WI) according to the manufacturer's instruction. For caspase 9 activity, PC3 cells were seeded in 10 mm tissue culture plate and grew to 50% confluence. Cells were then treated with 0–10 μM CTA095 for 24 h. Cells were harvested and caspase 9 activity was measured using a Western blot with an anti-caspase 9 antibody.
Figure 7 Induction of apoptosis of PC3 cells following treatment with CTA095. PC3 cells were seeded at 10^6 cells/ml (2 ml) in a 6-well plate overnight and then treated with CTA095 at the indicated concentrations for 24 h. Cell cycle arrest was analyzed using PI staining (A). Apoptosis was analyzed using Annexin-V FITC apoptosis detection kit (B). Caspase 9 activation was measured using western blot (D). For caspase 3/7 activity, PC3 cells were seeded at 5000 cells/well in 96 well plate overnight and treated with CTA095 at 0–10 μM for 24 h. Caspase-3/7 activities were measured using the Apo-ONE Homogeneous Caspase-3/7 Assay kit (Promega, Madison, WI) according to the manufacturer's instruction. Columns, mean; bars, standard deviation, n = 3. […]

Etk = target: T1, Etk (Homo sapiens, UniProt P51813); experiment: Kinase inhibition assay (TLC, 33P-ATP); assay type: biochemical; settings: for pIC50: Etk
T1 construct: purchased Millipore Inc (Dundee, UK)
T1 sequence (P51813 1-675): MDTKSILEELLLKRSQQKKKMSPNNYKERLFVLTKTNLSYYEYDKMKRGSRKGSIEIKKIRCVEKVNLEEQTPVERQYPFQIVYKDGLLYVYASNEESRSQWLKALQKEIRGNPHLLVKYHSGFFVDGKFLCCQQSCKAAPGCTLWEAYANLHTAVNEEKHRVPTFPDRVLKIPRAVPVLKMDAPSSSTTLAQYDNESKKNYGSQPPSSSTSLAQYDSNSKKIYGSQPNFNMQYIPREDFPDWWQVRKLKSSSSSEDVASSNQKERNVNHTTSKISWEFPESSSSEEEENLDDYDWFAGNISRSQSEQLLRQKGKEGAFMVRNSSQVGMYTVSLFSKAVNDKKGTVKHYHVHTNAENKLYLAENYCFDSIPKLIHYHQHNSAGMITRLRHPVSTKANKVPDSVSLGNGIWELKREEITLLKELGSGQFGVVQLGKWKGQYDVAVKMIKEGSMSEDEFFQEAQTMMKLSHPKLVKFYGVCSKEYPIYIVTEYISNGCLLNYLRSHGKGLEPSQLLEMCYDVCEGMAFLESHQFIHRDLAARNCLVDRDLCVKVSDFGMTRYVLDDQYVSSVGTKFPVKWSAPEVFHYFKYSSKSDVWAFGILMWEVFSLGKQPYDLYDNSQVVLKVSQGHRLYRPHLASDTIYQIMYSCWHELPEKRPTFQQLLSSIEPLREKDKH
Method: (§1) Kinase inhibition was measured using thin-layer-chromatography (TLC). Briefly, purified kinases (20 nM), the corresponding substrate (500 µM, TSFYGRH for Etk, YIYGSFK for the other kinases), and CTA095 (0–10 µM) were incubated in a kinase reaction (100 mM Hepes, pH 7.4, 10 mM MnCl2, 10 mM MgCl2, 1 mM DTT) for 5 min, and the reaction was started by adding 5 μCi ^33P-labeled ATP. The reaction (10 µl) was incubated at room temperature for 1 h and was stopped by adding 10 μL H3PO4. The radioactivity of the peptide substrate was analyzed using TLC as previously described.
(§2) Having isolated a small molecule that inhibits Etk, the next logical step was to determine its specificity for this enzyme. To accomplish this, purified Etk, Btk, Src and Yes were incubated in a kinase reaction buffer with CTA095 (0–1 μM) in the presence of ^33P-labeled ATP and a peptide (YIYGSFK), previously shown to be an excellent substrate for both BTK and Src family kinases. The kinase activity was measured using TLC technique.

Yes = target: T2, Yes (Homo sapiens, UniProt P07947); experiment: Kinase inhibition assay (TLC, 33P-ATP); assay type: biochemical
T2 construct: purchased Millipore Inc (Dundee, UK)
Method: as §1, §2

Solubility in water = assay type: physicochemical
PC3 cells [1] = experiment: Flow cytometry: PI staining and Annexin V-FITC apoptosis; assay type: cell-based, human; settings: PC3, 24 h
Method: PC3 cells were treated with 0.1% DMSO (control) and CTA095 at the indicated concentrations for 24 h. Cell cycle arrest was determined by the incorporation of propidium iodide (Sigma-Aldrich) into permeabilized cells. Cells undergoing apoptosis were identified using an Annexin V-FITC kit (Abcam), following the manufacturer's instructions. The cells were analyzed using a Coulter Epics XL flow cytometer (Beckman Coulter, Miami, FL).
Figure 7 Induction of apoptosis of PC3 cells following treatment with CTA095. PC3 cells were seeded at 10^6 cells/ml (2 ml) in a 6-well plate overnight and then treated with CTA095 at the indicated concentrations for 24 h. Cell cycle arrest was analyzed using PI staining (A). Apoptosis was analyzed using Annexin-V FITC apoptosis detection kit (B). Caspase 9 activation was measured using western blot (D). For caspase 3/7 activity, PC3 cells were seeded at 5000 cells/well in 96 well plate overnight and treated with CTA095 at 0–10 μM for 24 h. Caspase-3/7 activities were measured using the Apo-ONE Homogeneous Caspase-3/7 Assay kit (Promega, Madison, WI) according to the manufacturer's instruction. Columns, mean; bars, standard deviation, n = 3. […] TEXT PRINTED IN THE PICTURE: (A) CTA095: 4.3% (0 μM); 6.9% (5 μM); 44.0% (10 μM) DOUBTS OF THE COPYIST ABOUT THIS PICTURE: Panel A prints no substance label. […]

PC3 cells [2] = experiment: MTT growth inhibition assay; assay type: cell-based, human
Method: Cells were seeded in 96-well plates and cultured overnight, followed by treatment with 0.1% DMSO, as the vehicle control, and CTA095, at the indicated concentrations for 72 h. Growth inhibition was measured using a 3-(4,5-Dimethylthiazol-2-yl)-2,5-diphenyltetrazolium bromide (MTT) assay (Roche Diagnostic, Mannheim, Germany).
Figure 5 Growth Inhibition of CTA095 to LNCAP, CWR22Rv1, PC3 prostate cancer and normal prostate (RWPE1) cells. Cells were seeded at 5,000 cells/well in 96-well plate overnight and treated with CTA095 at the indicated concentrations. The cell viability was measured using MTT assay after 72 h. dots, mean; bars, standard deviation, n = 3.
Figure 9 CTA095 as a chemo sensitizer. Growth Inhibition of CTA095 and in combination with 10 μM chloroquine (CQ), or 2 ng/ml paclitaxel (PTX) to PC3 human prostate cancer cells. Cells were seeded at 5,000 cells/well in 96-well plate overnight and pretreated with the corresponding co-treatments for 1h, then treated with 2.5 μM CTA095. The cell viability was measured using MTT assay after 72 h. Columns, mean; bars, standard deviation, n = 3.

T2 sequence (P07947 whole entry): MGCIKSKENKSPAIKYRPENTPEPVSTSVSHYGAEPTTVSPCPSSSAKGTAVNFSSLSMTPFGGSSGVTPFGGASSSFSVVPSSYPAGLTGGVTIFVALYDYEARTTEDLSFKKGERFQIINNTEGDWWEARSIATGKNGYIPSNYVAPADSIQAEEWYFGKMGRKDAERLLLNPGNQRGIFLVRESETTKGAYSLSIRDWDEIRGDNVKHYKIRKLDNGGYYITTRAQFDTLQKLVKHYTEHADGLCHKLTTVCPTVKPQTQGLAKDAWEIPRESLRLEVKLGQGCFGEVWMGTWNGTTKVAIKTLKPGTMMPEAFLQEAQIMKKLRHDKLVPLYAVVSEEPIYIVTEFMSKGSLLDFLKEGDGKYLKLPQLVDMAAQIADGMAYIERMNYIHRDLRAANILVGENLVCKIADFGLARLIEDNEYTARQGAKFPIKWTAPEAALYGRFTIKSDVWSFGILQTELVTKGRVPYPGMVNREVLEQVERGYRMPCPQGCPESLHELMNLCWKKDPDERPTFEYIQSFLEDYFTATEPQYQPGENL

Q: For `O=c1[nH]c2cc3nc(-c4ccc5oc6ccccc6c5c4)n(CCCN4CCCCC4)c3cc2nc1-c1ccccc1` [CTA095, 2-(dibenzo[b,d]furan-2-yl)-7-phenyl-1-(3-(piperidin-1-yl)propyl)-1H-imidazo[4,5-g]quinoxalin-6(5H)-one], which “activation of caspase 9” value (caspase 9 in PC3 cells) is on record?
A: The value was “dose dependent activation”.

Q: And the pIC50 (Etk; TLC assay)?
A: The pIC50 was 7.22.

Q: And the pIC50 (Etk; TLC, peptide YIYGSFK, 33P-ATP)?
A: Its pIC50 is about 7.22.

Q: And the Etk inhibition (Etk; compound 1 μM, Etk 20 nM, compared with other CT compounds)?
A: Its Etk inhibition is “significant Etk inhibition”.

Q: What about the pIC50 (Yes) of the same compound?
A: Its pIC50 is under 5.00.

Q: What about the solubility in water (Solubility in water) of the same compound?
A: Its solubility in water is “highly insoluble in water”.

Q: And the “apoptosis (Annexin-V reactivity)” value (PC3 cells [1])?
A: The value was “dose-dependent increase of apoptosis”.

Q: And the pIC50 (PC3 cells [2]; Homo sapiens, PC-3, PC3, MTT, 72 h)?
A: The pIC50 was 5.35.

Q: And the “growth inhibition in combination with chloroquine (CQ)” value (PC3 cells [2]; PC3, 2.5 μM CTA095 + CQ 10 μM, MTT, 72 h)?
A: The value was “synergistic effect”.

Q: And the “growth inhibition in combination with paclitaxel (PTX)” value (PC3 cells [2]; PC3, 2.5 μM CTA095 + PTX 2 ng/ml, MTT, 72 h)?
A: Its value is “synergistic effect”.

Q: What about the “combination with autophagy inducer RPM” value (PC3 cells [2]; prostate cancer cells, co-treatment with rapamycin (RPM)) of the same compound?
A: Its value is “synergizes”.
